From PubChem BioAssay AID1508612 come the findings set out here.

Where only a bound is given, the exact number is not on record here.

This data set in a line: passive permeability, PAMPA, ADME assay (AID 1508612). To be noted: pH 7.4, 30.0 min, 50.0 µM. On the technique in general: PAMPA measures passive passage across an artificial lipid membrane.
As a reminder, the Papp is a coefficient for how fast a substance crosses the barrier. A lower Papp goes with slow passage. With `COc1cc(OC)cc(-c2csc(N3CCC(C(N)=O)CC3)n2)c1`, the apparent permeability (Papp) is over 1000 ×10⁻⁶ cm/s.
As to `COc1ccc(Cl)cc1NC(=O)c1sc2nc3c(cc2c1N)N1CCC3CC1`, the apparent permeability (Papp) amounted to 55 ×10⁻⁶ cm/s.
`Cc1cccc(NCc2ccc(O)c3ncccc23)c1`: the apparent permeability (Papp) was under 1 ×10⁻⁶ cm/s.
As for `O=C1CCCC2=C1C(C1CCCCC1Cl)N=C(NC1NC3CCCCC3S1)N2` (centres undefined), the apparent permeability coefficient (Papp) was 161 ×10⁻⁶ cm/s.
Then `COc1ccc(NC(=O)c2[nH]c(C)c(C(C)=O)c2C)cc1S(=O)(=O)Nc1cccc(C#N)c1`, with 30.9 ×10⁻⁶ cm/s.
With `CCOc1ccc(CCNC(=O)c2cc3c(s2)CCC3)cc1OCC`, the Papp is over 1000 ×10⁻⁶ cm/s.
Then `CCc1nnc(NC(=O)c2nc(S(=O)(=O)Cc3ccc(C)cc3)ncc2Cl)s1`, with 32.9 ×10⁻⁶ cm/s; and `CC(C)NC(=O)C1CCN(C(=O)c2cc3sccc3n2Cc2ccc(Cl)cc2)CC1`, with over 1000 ×10⁻⁶ cm/s.
On to `Cc1ccc2oc(NC3=NC4(CCCC4)C4=C(CCCC4=O)N3)nc2c1`, for which the Papp came to 543 ×10⁻⁶ cm/s.
The compound `CCOC(=O)c1ccnc(CNCC(=O)N(CC)CCN(C)C)c1` displayed a Papp of 40.4 ×10⁻⁶ cm/s.
Then `CCN1CCN(c2ccc(Nc3ccc(-c4ccc(C(N)=O)cc4)n4ncnc34)cc2)CC1`, with 747 ×10⁻⁶ cm/s; and `CCN1CCCC1CNC(=O)c1cc(S(=O)(=O)CC)c(N)cc1OC` (centres undefined), with under 1 ×10⁻⁶ cm/s; and `COc1cccc(CNc2ccc(S(=O)(=O)Nc3cccc4ccncc34)cc2)c1O`, with over 1000 ×10⁻⁶ cm/s.
The result for `N#Cc1ccc(N2N=C3c4ccc(C(=O)O)cc4CC[C@@H]3[C@@H]2C2CCCC2)cc1Cl` reads 272 ×10⁻⁶ cm/s.
Then `Cc1ccc(NC(=O)CSc2ncc(S(=O)(=O)c3ccc(C(C)C)cc3)c(=O)[nH]2)cc1C`, with 1.8 ×10⁻⁶ cm/s; and `COC(=O)c1cccc(NC(=O)c2cnc(-c3ccc(F)cc3)nc2-c2ccncc2)c1`, with over 1000 ×10⁻⁶ cm/s; and `CCOc1ccc(CCNC(=O)c2cc3ccccc3o2)cc1OCC`, with over 1000 ×10⁻⁶ cm/s.
For `Nc1nc2c(s1)C(c1ccccc1)CC(=O)N2` (centres undefined), the Papp came to 19.3 ×10⁻⁶ cm/s.
`OC1(c2ccc(Cl)cc2)CCN(Cc2c[nH]c3ccccc23)CC1` yielded an apparent permeability (Papp) of over 1000 ×10⁻⁶ cm/s.
The result for `COCCOc1cnc2ccn([C@H](C)c3nnc4c(F)cc(-c5cnn(C)c5)cn34)c(=O)c2c1` reads 15.1 ×10⁻⁶ cm/s; that for `CC[C@@H](C)Nc1cc(C(=O)NC2CC3CCC(C2)N3c2ccc(C(=O)C3CC3)cn2)c(C)cc1C(N)=O` (some centres undefined), over 1000 ×10⁻⁶ cm/s.
The result for `O=C(C=Cc1cccnc1)NCCCCC1CCN(C(=O)c2ccccc2)CC1` reads 130 ×10⁻⁶ cm/s; that for `COc1cc(-c2csc(N3CCC(C(N)=O)CC3)n2)cc(OC)c1OC`, 257 ×10⁻⁶ cm/s; that for `Cn1c2cc(S(C)=O)sc2c2cnn(Cc3cccc(N)c3)c(=O)c21` (centres undefined), 106 ×10⁻⁶ cm/s.
In the case of `CN(C(=O)COC(=O)c1csc(NCc2ccccc2)n1)c1ccccc1`, the apparent permeability (Papp) was over 1000 ×10⁻⁶ cm/s.
With `Cc1ccc2oc3c(c(=O)c2c1)C(c1ccc(O)cc1)N(CCCN(C)C)C3=O` (centres undefined), the apparent permeability coefficient (Papp) was under 1 ×10⁻⁶ cm/s.
The compound `Cc1cc(C)nc(NC(=S)N2CCN(c3nccc(C(F)(F)F)n3)CC2)c1` displayed a Papp of over 1000 ×10⁻⁶ cm/s.
As for `O=C1CCc2ccc(OCCCCN3CCN(c4cccc(Cl)c4Cl)CC3)cc2N1`, the Papp was over 1000 ×10⁻⁶ cm/s.
Then `NC(=O)C1CCN(c2nc(-c3ccc(N)cc3)cs2)CC1`, with 87.1 ×10⁻⁶ cm/s; and `O=C(Nc1ccc(N2CCN(C(=O)c3ccccc3F)CC2)cc1)c1cncc(Br)c1`, with over 1000 ×10⁻⁶ cm/s.
Then `CNc1oc(-c2ccccc2-c2ccccc2)nc1C#N`, with 906 ×10⁻⁶ cm/s; and `COc1cc2ncnc(Nc3ccc(Oc4ccccc4)cc3)c2cc1OC`, with over 1000 ×10⁻⁶ cm/s.
The result for `COc1ccc(-n2nc(C3CCCN(CC4CCCCC4)C3)[nH]c2=O)cc1` (centres undefined) reads over 1000 ×10⁻⁶ cm/s; that for `CCOC(=O)CCNc1cc(N2CCc3ccccc3CC2)nc(-c2cccnc2)n1`, 951 ×10⁻⁶ cm/s; that for `COc1ccc(Nc2nc(-c3ccncc3)nc3ccccc23)cc1F`, 107 ×10⁻⁶ cm/s.
`O=C(Nc1ccc(S(=O)(=O)Nc2nccs2)cc1)c1cc(-c2ccccc2)nc2ccccc12` displayed a Papp of 6.3 ×10⁻⁶ cm/s.
With `O=C(Nc1nc(-c2ccccc2)cs1)c1ccncc1NS(=O)(=O)c1ccc(N2CCCC2=O)cc1`, the apparent permeability (Papp) amounted to 314 ×10⁻⁶ cm/s.
For `c1ccc(-c2ccc(CNc3nc(-c4ccccn4)nnc3-c3ccccc3)cc2)cc1`, the apparent permeability coefficient (Papp) is over 1000 ×10⁻⁶ cm/s.
Then `Fc1ccc(Nc2nc(C3=CCNCC3)nc3ccccc23)cc1F`, with over 1000 ×10⁻⁶ cm/s; and `CCCC1=Nc2cc(C(=O)NC3CCCC3)ccc2Sc2ccc(C)cc21`, with 662 ×10⁻⁶ cm/s; and `Cc1cc(NS(=O)(=O)c2ccc(C(=O)NCc3ccc(Cl)c(Cl)c3)cc2)no1`, with 46.2 ×10⁻⁶ cm/s.
Then `O=C1NC(=O)C(c2cnc3ccccn23)=C1c1cn2c3c(cccc13)CN(C(=O)N1CCOCC1)CC2`, with 82.9 ×10⁻⁶ cm/s.
In the case of `COc1cc2nccc(Oc3ccc(NC(=O)C4(C(=O)Nc5ccc(F)cc5)CC4)cc3)c2cc1OC`, the apparent permeability coefficient (Papp) worked out at 507 ×10⁻⁶ cm/s.
Then `COc1cccc(CNc2ccc(S(=O)(=O)Nc3cccc4ccccc34)cc2)c1O`, with under 1 ×10⁻⁶ cm/s; and `Cc1n[nH]c(C)c1CCc1nc2c3ccccc3nc(SCC(=O)Nc3ccc(F)cc3)n2n1`, with 122 ×10⁻⁶ cm/s.
Turning to `Fc1ccc(-c2ccc(Nc3nc(-c4ccncc4)nc4ccccc34)cc2F)c(Cl)c1`, the apparent permeability (Papp) is 20.9 ×10⁻⁶ cm/s.
The result for `O=S(=O)(Nc1nccs1)c1ccc(NCc2cccc3cc[nH]c23)cc1` reads 2.4 ×10⁻⁶ cm/s; that for `N#Cc1ccccc1CSc1nc2ncc(Br)cc2[nH]1`, 415 ×10⁻⁶ cm/s; that for `Nc1nc2c(s1)C(c1c(Cl)cccc1Cl)CC(=O)N2` (centres undefined), 5.54 ×10⁻⁶ cm/s.
Then `Cc1c(Cl)cccc1NC(=O)CNS(=O)(=O)c1cccs1`, with 115 ×10⁻⁶ cm/s; and `CNc1oc(-c2cccc(Cl)c2Cl)nc1C#N`, with 505 ×10⁻⁶ cm/s; and `O=[S+]([O-])(Nc1nccs1)c1ccc(NCc2cccc3c2NCC3)cc1`, with 18.9 ×10⁻⁶ cm/s.
In turn, `Cc1ccnc(NC(=S)N2CCC(Nc3cccc(C(F)(F)F)c3)CC2)c1` returned a Papp of 835 ×10⁻⁶ cm/s.
Then `CC1=C(C(=O)Nc2nncs2)C(c2ccccc2Br)N=C(Nc2nc3ccccc3o2)N1` (centres undefined), with 128 ×10⁻⁶ cm/s; and `O=C(O)c1ccc(O)c2ncc(N3CCCN(CCc4cccc5ccccc45)CC3)cc12`, with 974 ×10⁻⁶ cm/s; and `Cc1ccc(S(=O)(=O)Nc2cc3c(cc2C(=O)Nc2nc(-c4ccccc4)cs2)OCO3)cc1`, with 19.3 ×10⁻⁶ cm/s.
The compound `NC(=O)C1CCN(c2ncc(-c3cccc(N4CCCCC4)c3)s2)CC1` came in with an apparent permeability coefficient (Papp) of 924 ×10⁻⁶ cm/s.
The result for `COc1ccc(Nc2cc(C)nc(-n3nc(C)cc3C)n2)cc1Cl` reads over 1000 ×10⁻⁶ cm/s.
With `CN(C)C(=O)C1CCN(c2nc(-c3ccc(Br)cc3)cs2)CC1`, the apparent permeability coefficient (Papp) was 583 ×10⁻⁶ cm/s.
The result for `CCOC(=O)c1nn(-c2ccc(OC)cc2)c(=O)c2c(N)scc12` reads 187 ×10⁻⁶ cm/s; that for `Cc1cc(C)nc(NC(=S)N2CCN(c3cccc(OC(F)F)c3)CC2)c1`, 852 ×10⁻⁶ cm/s; that for `NC(=O)N1CCN(c2nc(-c3ccc(Br)cc3)cs2)CC1`, 958 ×10⁻⁶ cm/s.
Then `O=C(O)c1ccncc1Nc1nn(CCN2CCC(F)(F)CC2)c2ccc(F)cc12`, with 1.2 ×10⁻⁶ cm/s; and `CN(C(=O)CSc1nc2ccc(NC(=O)c3ccc(F)cc3)cc2s1)c1ccccc1`, with 741 ×10⁻⁶ cm/s; and `CSc1ccc(-c2cnc(N3CCC(C(N)=O)CC3)s2)cc1`, with 58.9 ×10⁻⁶ cm/s.
Then `CCOC(=O)c1[nH]c(C)c(CCC(=O)N2CCN(c3cc(Cl)ccc3C)CC2)c1C`, with over 1000 ×10⁻⁶ cm/s.
For the compound `Cc1ccc(S(=O)(=O)Nc2cnccc2C(=O)Nc2nc(-c3ccccc3)cs2)cc1`, the Papp stood at 724 ×10⁻⁶ cm/s.
Consider `CC(=O)c1ccc(-c2csc(N3CCC(C(N)=O)CC3)n2)cc1`, for which the Papp stood at 300 ×10⁻⁶ cm/s.
The result for `CC(=O)c1c(C)[nH]c(C(=O)Nc2cccc([S+](=O)([O-])Nc3cccnc3)c2)c1C` reads 16.5 ×10⁻⁶ cm/s.
`CNC(=O)c1nn(C)c2c1C(C)(C)Cc1cnc(Nc3ccc(N4CCN(C)CC4)cc3)nc1-2` returned a Papp of over 1000 ×10⁻⁶ cm/s.
The result for `CCOC(=O)c1nnc(N[S+](=O)([O-])c2ccc(NC(=O)Cc3ccc(Cl)c(Cl)c3)cc2)s1` reads 1.1 ×10⁻⁶ cm/s; that for `O=c1c(O)c(-c2ccc(O)cc2)oc2cc(O)cc(O)c12`, 46.6 ×10⁻⁶ cm/s; that for `CCOc1ccc(CCNC(=O)c2cc3sccc3n2Cc2ccccc2)c(F)c1OCC`, under 1 ×10⁻⁶ cm/s.
Then `COc1cccc(-n2ncc3c2CCCC3NC(=O)c2ccccn2)c1` (centres undefined), with over 1000 ×10⁻⁶ cm/s; and `CCOC(=O)C1CCN(C(=O)Nc2ccc3c(c2)nc(C)n3C)CC1`, with 38.4 ×10⁻⁶ cm/s.
Then `Cc1ccc(S(=O)(=O)NCCC(=O)Nc2nc(-c3ccccc3)cs2)cc1`, with 861 ×10⁻⁶ cm/s; and `O=S(=O)(Nc1nccs1)c1ccc(Nc2nc(-c3ccc(F)cc3)cs2)cc1`, with 10.6 ×10⁻⁶ cm/s; and `COc1ccc(C2Nc3ccccc3C(=O)N2Cc2ccco2)cc1` (centres undefined), with 799 ×10⁻⁶ cm/s.
`COC(C)(C)CCn1nc(Nc2c(C)cccc2C)c2cnc(Nc3ccc(OCCN4CCCC4)c(F)c3)nc21` displayed a Papp of over 1000 ×10⁻⁶ cm/s.
The result for `COc1cccc(CNc2ccc(S(=O)(=O)Nc3ccc(C4CCNCC4)cc3)cc2)c1O` reads 1.79 ×10⁻⁶ cm/s; that for `CC(=O)N1CCN(c2nc(-c3ccc(Br)cc3)cs2)CC1`, 995 ×10⁻⁶ cm/s.
The result for `Cc1ccccc1C(=O)N1CCc2cc(-c3nc(NC(=O)Cc4ccc5c(c4)OCO5)sc3C)ccc21` reads 23.9 ×10⁻⁶ cm/s; that for `Clc1ccc2ncc(-c3cccc(NC4CNC4)n3)n2c1`, 182 ×10⁻⁶ cm/s.
In turn, `O=C(Nc1cncc(Cc2ccccc2)c1)c1ccc(-c2cccc([N+](=O)[O-])c2)o1` had a Papp of over 1000 ×10⁻⁶ cm/s.
`Fc1cc(Nc2nc(-c3ccncc3)nc3ccccc23)ccc1-c1ccc2[nH]ncc2c1` gave a Papp of 42 ×10⁻⁶ cm/s.
Consider `CCN(CCCO)CCCOc1ccc2c(Nc3cc(CC(=O)Nc4cccc(F)c4)[nH]n3)ncnc2c1`, for which the Papp came to 2.5 ×10⁻⁶ cm/s.
The result for `Cc1ccc(N2CCC(CNc3nc(-c4ccccc4C(C)C)ncc3F)CC2)cn1` reads over 1000 ×10⁻⁶ cm/s.
Regarding `Cc1nc(-c2ccco2)cc([C@H]2CN3CC[C@H]2C[C@@H]3CNC(=O)NC2CCCCC2)n1`, the Papp amounted to 475 ×10⁻⁶ cm/s.
For `Nc1c(-c2ccccc2)cc[nH]c1=O`, the Papp amounted to 613 ×10⁻⁶ cm/s.
Then `Cc1ccc(N2CCN(c3cnn(-c4nc5ccccc5s4)c(=O)c3Cl)CC2C)cc1` (centres undefined), with 317 ×10⁻⁶ cm/s; and `Nc1ncc(S(=O)(=O)N2CCOCC2)s1`, with 15.5 ×10⁻⁶ cm/s; and `COc1cccc(-c2csc(N3CCC(C(N)=O)CC3)n2)c1`, with 638 ×10⁻⁶ cm/s.
Then `COc1ccc(C(=O)Nc2nc(-c3ccccc3)cs2)cc1NS(=O)(=O)c1ccc(C)cc1`, with 14.9 ×10⁻⁶ cm/s; and `Cc1ccc(NC(=O)Nc2cc3c(cc2N2CCCCC2)n(C)c(=O)n3C)cc1Cl`, with 8 ×10⁻⁶ cm/s.
